Experimental data taken from patent publication US20240174639A1, “PYRIDINE DERIVATIVES USEFUL AS HCN2 MODULATORS” (King's College London, priority 2021, published 2024).
Counter-ions that a name gives are not always drawn.

Experiments:
HCN2 = target: T1, HCN2 (Homo sapiens, UniProt Q9UL51); assay: HCN2 assay using PatchXpress 7000A (Example 50A); type: cell-based; details: PatchXpress protocol (PX)
T1 sequence (Q9UL51 1-889): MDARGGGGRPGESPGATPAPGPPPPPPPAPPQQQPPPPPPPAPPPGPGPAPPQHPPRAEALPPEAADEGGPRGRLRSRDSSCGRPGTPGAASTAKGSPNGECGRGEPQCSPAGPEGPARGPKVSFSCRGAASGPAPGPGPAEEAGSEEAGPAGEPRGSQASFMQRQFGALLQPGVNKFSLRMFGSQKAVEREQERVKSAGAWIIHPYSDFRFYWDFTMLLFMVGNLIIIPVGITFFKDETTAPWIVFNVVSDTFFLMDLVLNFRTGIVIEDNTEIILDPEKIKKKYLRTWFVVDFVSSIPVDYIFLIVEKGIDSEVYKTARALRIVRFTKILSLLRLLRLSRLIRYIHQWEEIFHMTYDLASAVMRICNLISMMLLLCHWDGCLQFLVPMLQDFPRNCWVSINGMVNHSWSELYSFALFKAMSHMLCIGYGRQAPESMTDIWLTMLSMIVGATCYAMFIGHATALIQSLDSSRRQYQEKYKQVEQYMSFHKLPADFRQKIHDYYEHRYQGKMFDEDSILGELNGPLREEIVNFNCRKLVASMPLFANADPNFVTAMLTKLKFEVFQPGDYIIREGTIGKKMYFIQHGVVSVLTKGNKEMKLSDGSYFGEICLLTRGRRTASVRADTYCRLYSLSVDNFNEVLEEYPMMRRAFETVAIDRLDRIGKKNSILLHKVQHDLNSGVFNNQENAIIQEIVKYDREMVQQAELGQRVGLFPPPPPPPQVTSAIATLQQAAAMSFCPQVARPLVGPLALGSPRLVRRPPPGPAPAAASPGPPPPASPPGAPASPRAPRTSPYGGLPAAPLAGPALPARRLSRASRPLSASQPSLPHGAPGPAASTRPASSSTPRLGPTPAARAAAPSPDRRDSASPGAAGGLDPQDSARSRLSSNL
Excerpt: (§1) Solutions for recording HON currents were:
For HCN1 and HCN2, the pulse protocol involved stepping from a holding potential of −30 mV to −110 mV (see FIG. 1A) for 2 seconds to evoke the current. The membrane voltage was then stepped back to −30 mV for a further 8 seconds. This sequence was evoked repeatedly every 10 seconds throughout the experiment, starting prior to drug (Control A) and during cumulative additions of 5 increasing compound concentrations, then finally a 100% inhibiting concentration of cesium chloride (CsCl, 3 mM).
(§2) The peak inward current measured at the end of the pulse to −110 mV (HCN1 and HCN2) or −130 mV (HCN4) was measured and any leak current subtracted to calculate the HCN current. The HCN current amplitude was measured after each control or compound addition and normalized to the control amplitude (Control A).
(§3) All experiments were performed at room temperature (approximately 22° C.).
(§4) Each test compound concentration was applied to the cell for seven (7) minutes, at which point the next cumulative concentration was applied. 3 mM CsCl was applied to each cell for 2 minutes at the end of each experiment (Control B) to determine 100% inhibition level of the HCN current.

HCN4 = target: T2, HCN4 (Homo sapiens, UniProt Q9Y3Q4); assay: HCN4 assay using PatchXpress 7000A (Example 50A); type: cell-based; details: PatchXpress protocol (PX)
T2 sequence (Q9Y3Q4 1-1203): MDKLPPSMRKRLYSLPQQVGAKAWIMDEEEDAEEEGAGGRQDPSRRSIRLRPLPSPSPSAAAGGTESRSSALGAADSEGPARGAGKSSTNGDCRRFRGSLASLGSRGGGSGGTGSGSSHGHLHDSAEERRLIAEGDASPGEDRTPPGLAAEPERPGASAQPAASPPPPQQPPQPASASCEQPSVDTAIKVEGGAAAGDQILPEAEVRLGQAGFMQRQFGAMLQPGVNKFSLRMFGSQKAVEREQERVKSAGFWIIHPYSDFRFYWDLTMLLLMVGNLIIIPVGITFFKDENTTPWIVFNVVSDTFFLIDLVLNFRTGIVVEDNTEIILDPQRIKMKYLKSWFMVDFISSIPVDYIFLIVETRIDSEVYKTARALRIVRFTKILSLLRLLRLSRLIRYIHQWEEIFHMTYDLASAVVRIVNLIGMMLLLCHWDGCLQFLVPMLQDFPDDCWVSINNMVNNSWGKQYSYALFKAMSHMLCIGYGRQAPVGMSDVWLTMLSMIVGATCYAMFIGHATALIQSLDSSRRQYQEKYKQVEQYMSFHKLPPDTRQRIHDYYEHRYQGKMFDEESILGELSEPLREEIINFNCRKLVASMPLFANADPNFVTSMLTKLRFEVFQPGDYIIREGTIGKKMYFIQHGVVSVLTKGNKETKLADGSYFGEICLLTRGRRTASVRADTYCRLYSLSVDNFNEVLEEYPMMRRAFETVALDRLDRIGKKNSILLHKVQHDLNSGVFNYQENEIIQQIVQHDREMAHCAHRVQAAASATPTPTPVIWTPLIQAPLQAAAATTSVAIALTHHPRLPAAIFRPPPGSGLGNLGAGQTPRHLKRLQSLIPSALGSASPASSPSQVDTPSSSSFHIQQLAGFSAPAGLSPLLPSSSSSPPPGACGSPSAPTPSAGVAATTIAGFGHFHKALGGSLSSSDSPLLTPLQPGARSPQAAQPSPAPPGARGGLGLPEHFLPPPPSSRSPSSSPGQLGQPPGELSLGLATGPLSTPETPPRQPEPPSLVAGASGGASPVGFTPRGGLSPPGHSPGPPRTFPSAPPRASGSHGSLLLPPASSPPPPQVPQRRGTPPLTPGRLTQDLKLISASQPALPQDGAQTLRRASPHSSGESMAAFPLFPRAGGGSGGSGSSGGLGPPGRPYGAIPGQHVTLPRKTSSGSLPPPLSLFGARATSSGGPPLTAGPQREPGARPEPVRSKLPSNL
Method: as §1
For HCN4, the pulse protocol involved stepping from a holding potential of −30 mV to −130 mV (see FIG. 1B) for 4 seconds to evoke the current.
as §2, §3, §4

Row | IC50 (HCN2) [µM] | IC50 (HCN4) [µM] | SMILES
1 | 0.9 | 3.4 | N[C@@H](Cc1ccccn1)c1ccccc1-n1ncc2cc(Br)ccc21 [Example 1, (S)-1-[2-(5-Bromo-1H-indazol-1-yl)phenyl]-2-(pyridine-2-yl)ethane-1-amine hydrochloride]
2 | 3.5 | > 30 | N#Cc1ccc2c(cnn2-c2ccccc2[C@@H](N)Cc2ccccn2)c1 [Example 3, (S)-1-{2-[1-Amino-2-(pyridine-2-yl)ethyl]-phenyl}-1H-indazole-5-carbonitrile hydro-chloride]
3 | 1.9 | > 30 | Cc1cccc(C[C@H](N)c2ncccc2-n2ncc3ccccc32)n1 [Example 5, (S)-1-[3-(1H-indazole-1-yl)pyridine-2-yl]-2-(6-methylpyridine-2-yl)ethan-1-amine hydrochloride]
4 | 1.1 | 22.2 | N#Cc1cccc(C[C@H](N)c2ncccc2-n2ncc3ccccc32)n1 [Example 6, (S)-6-{2-[3-(1H-ind-azol-1-yl)pyridine-2-yl]-2-aminoethyl}pyridine-2-carbonitrile hydro-chloride]
5 | 7 | > 30 | N[C@@H](Cc1ccccn1)c1ccccc1-n1ncc2cnccc21 [Example 7, (S)-1-[2-(1H-pyrazolo-[4,3-c]pyridine-1-yl)-phenyl]-2-(pyridine-2-yl)ethan-1-amine hydrochloride]
6 | 28.1 | > 30 | CN(C)C(=O)c1cccc(C[C@H](N)c2ncccc2-n2ncc3ccccc32)n1 [Example 8, (S)-6-{2-[3-(1H-ind-azol-1-yl)pyridine-2-yl]-2-aminoethyl}-N,N-dimethylpyridine-2-carboxamide hydro-chloride]
7 | 17.3 | > 30 | NC(=O)c1cccc(C[C@H](N)c2ncccc2-n2ncc3ccccc32)n1 [Example 9, (S)-6-{2-[3-(1H-ind-azol-1-yl)pyridine-2-yl]-2-aminoethyl}pyridine-2-carboxamide hydro-chloride]
8 | 0.08 | 4.2 | N[C@@H](Cc1ncccc1F)c1ncccc1-n1ncc2ccccc21 [Example 10, (S)-1-[3-(1H-indazole-1-yl)pyridine-2-yl]-2-(3-fluoropyridine-2-yl)ethan-1-amine hydrochloride]
9 | 0.16 | – | Cc1ccc(F)c(C[C@H](N)c2ncccc2-n2ncc3ccccc32)n1 [Example 11, (S)-1-[3-(1H-indazole-1-yl)pyridine-2-yl]-2-(3-fluoro-6-methyl-pyridine-2-yl)ethan-1-amine hydrochloride]
10 | > 10 | – | N[C@@H](Cc1cccc(-c2cn[nH]c2)n1)c1ncccc1-n1ncc2ccccc21 [Example 12, (S)-1-[3-(1H-indazole-1-yl)pyridine-2-yl]-2-[6-(1H-pyrazol-4-yl)-pyridine-2-yl)ethan-1-amine hydrochloride]
11 | > 10 | – | N[C@@H](Cc1cccc(OCCO)n1)c1ncccc1-n1ncc2ccccc21 [Example 13, (S)-2-[(6-{2-[3-(1H-Indazol-1-yl)pyridine-2-yl]-2-aminoethyl}-pyridine-2-yl)oxy]-ethan-1-ol hydro-chloride]
12 | 3.7 | – | N[C@@H](Cc1cccc(CCO)n1)c1ncccc1-n1ncc2ccccc21 [Example 14, (S)-2-(6-{2-[3-(1H-Indazol-1-yl)pyridine-2-yl]-2-aminoethyl}-pyridine-2-yl)ethan-1-ol hydrochloride]
13 | 2.1 | 14.8 | CCc1cccc(C[C@H](N)c2ncccc2-n2ncc3ccccc32)n1 [Example 15, (S)-1-[3-(1H-indazole-1-yl)pyridine-2-yl]-2-(6-ethylpyridine-2-yl)-ethan-1-amine hydro-chloride]
14 | 0.13 | 2.1 | Cc1cccnc1C[C@H](N)c1ncccc1-n1ncc2ccccc21 [Example 16, (S)-1-[3-(1H-indazole-1-yl)pyridine-2-yl]-2-(3-methylpyridine-2-yl)ethan-1-amine hydrochloride]
15 | 3.3 | 14.7 | N[C@@H](Cc1cccc(F)n1)c1ncccc1-n1ncc2ccccc21 [Example 17, (S)-1-[3-(1H-indazole-1-yl)pyridine-2-yl]-2-(6-fluoropyridine-2-yl)ethan-1-amine hydrochloride]
16 | 0.5 | 11.7 | N[C@@H](Cc1ccc(F)cn1)c1ncccc1-n1ncc2ccccc21 [Example 18, (S)-1-[3-(1H-indazole-1-yl)pyridine-2-yl]-2-(5-fluoropyridine-2-yl)-ethan-1-amine hydro-chloride]
17 | 6.9 | – | NC(=O)c1ccc(F)c(C[C@H](N)c2ncccc2-n2ncc3ccccc32)n1 [Example 19, (S)-6-{2-[3-(1H-ind-azol-1-yl)pyridine-2-yl]-2-aminoethyl}-5-fluoropyridine-2-carboxamide hydro-chloride]
18 | 0.9 | 13 | Cc1nc(C[C@H](N)c2ncccc2-n2ncc3ccccc32)ccc1F [Example 20, (S)-1-[3-(1H-indazole-1-yl)pyridine-2-yl]-2-(5-fluoro-6-methyl-pyridine-2-yl)ethan-1-amine hydrochloride]
19 | – | 19.2 | N[C@@H](Cc1nc(CCO)ccc1F)c1ncccc1-n1ncc2ccccc21 [Example 24, (S)-2-(6-{2-[3-(1H-Indazol-1-yl)pyridine-2-yl]-2-aminoethyl}-5-fluoropyridine-2-yl)-ethan-1-ol hydrochloride]
20 | > 10 | – | NC(=O)c1nc(C[C@H](N)c2ncccc2-n2ncc3ccccc32)ccc1F [Example 27, (S)-6-{2-[3-(1H-ind-azol-1-yl)pyridine-2-yl]-2-aminoethyl}-3-fluoropyridine-2-carboxamide hydro-chloride]
21 | 2.6 | – | CN(C)C(=O)c1ccc(F)c(C[C@H](N)c2ncccc2-n2ncc3ccccc32)n1 [Example 29, (S)-6-{2-[3-(1H-ind-azol-1-yl)pyridine-2-yl]-2-aminoethyl}-5-fluoro-N,N-dimethylpyridine-2-carboxamide hydro-chloride]
22 | ~10 | – | CS(=O)(=O)c1cccc(C[C@H](N)c2ncccc2-n2ncc3ccccc32)n1 [Example 49, (S)-1-[3-(1H-indazole-1-yl)pyridine-2-yl]-2-(6-methylsulfonyl-pyridine-2-yl)ethan-1-amine hydrochloride]
